These results are taken from ChEMBL document CHEMBL4177582, “Modifications of flexible nonyl chain and nucleobase head group of (+)-erythro-9-(2's-hydroxy-3's-nonyl)adenine [(+)-EHNA] as adenosine deaminase inhibitors” (Bioorg Med Chem, 2017).

Data set [1] deals with T1, Adenosine deaminase (Bos taurus, UniProt P56658).
T1 sequence (P56658 whole entry): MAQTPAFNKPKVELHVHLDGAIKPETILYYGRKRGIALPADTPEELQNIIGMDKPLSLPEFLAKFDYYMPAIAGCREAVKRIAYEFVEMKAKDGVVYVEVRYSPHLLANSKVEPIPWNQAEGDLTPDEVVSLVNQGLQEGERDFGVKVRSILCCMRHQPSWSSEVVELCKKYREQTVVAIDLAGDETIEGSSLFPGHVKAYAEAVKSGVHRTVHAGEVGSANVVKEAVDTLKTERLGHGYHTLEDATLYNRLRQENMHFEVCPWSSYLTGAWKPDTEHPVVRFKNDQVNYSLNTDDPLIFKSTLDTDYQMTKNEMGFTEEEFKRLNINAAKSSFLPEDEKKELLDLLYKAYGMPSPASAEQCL
The data set can be described thus: Inhibition of bovine adenosine deaminase pre-incubated for 5 mins before adenosine addition.

Data set [2] can be described thus: Half life in mouse liver microsomes pre-incubated at 37 degC for 5 mins before NADPH addition and measured after 30 mins by LC/MS/MS method. Format: ADME, microsome.
A short description of data set [3]: Half life in rat liver microsomes pre-incubated at 37 degC for 5 mins before NADPH addition and measured after 30 mins by LC/MS/MS method. In kind it is ADME, microsome.
Data set [4] is described as follows: Drug metabolism in mouse liver microsomes assessed as drug recovery pre-incubated at 37 degC for 5 mins measured after 30 mins in absence of NADPH by LC/MS/MS method. The conditions noted are these: read-out: Drug recovery. In kind it is ADME, microsome. Background: Liver microsomes are vesicles of endoplasmic reticulum, rich in cytochrome P450 enzymes.
Data set [5] is described as follows: Drug metabolism in mouse liver microsomes assessed as drug recovery pre-incubated at 37 degC for 5 mins before NADPH addition and measured after 30 mins by LC/MS/MS method. In kind it is ADME, microsome. The conditions noted are these: read-out: Drug recovery.
A short description of data set [6]: Drug metabolism in human liver microsomes assessed as drug recovery pre-incubated at 37 degC for 5 mins before NADPH addition and measured after 30 mins by LC/MS/MS method. Format: ADME, microsome. The note with it: read-out: Drug recovery.
Data set [7] in a line: Half life in human liver microsomes pre-incubated at 37 degC for 5 mins before NADPH addition and measured after 30 mins by LC/MS/MS method. Format: ADME, microsome.
Data set [8] can be described thus: Drug metabolism in human liver microsomes assessed as metabolic turnover rate per 0.125 mg/ml protein pre-incubated at 37 degC for 5 mins before NADPH addition and measured after 30 mins by LC/MS/MS method. Format: ADME, microsome. The conditions noted are these: 0.5 h.
A short description of data set [9]: Drug metabolism in human liver microsomes assessed as drug recovery pre-incubated at 37 degC for 5 mins measured after 30 mins in absence of NADPH by LC/MS/MS method. In kind it is ADME, microsome. The note with it: read-out: Drug recovery.
The nature of data set [10]: Drug metabolism in rat liver microsomes assessed as drug recovery pre-incubated at 37 degC for 5 mins before NADPH addition and measured after 30 mins by LC/MS/MS method. In kind it is ADME, microsome. The conditions noted are these: read-out: Drug recovery.
A short description of data set [11]: Drug metabolism in rat liver microsomes assessed as metabolic turnover rate per 0.125 mg/ml protein pre-incubated at 37 degC for 5 mins before NADPH addition and measured after 30 mins by LC/MS/MS method. In kind it is ADME, microsome. The conditions noted are these: 0.5 h.
The nature of data set [12]: Drug metabolism in mouse liver microsomes assessed as metabolic turnover rate per 0.125 mg/ml protein pre-incubated at 37 degC for 5 mins before NADPH addition and measured after 30 mins by LC/MS/MS method. Format: ADME, microsome. The conditions noted are these: 0.5 h.
Data set [13] in a line: Drug metabolism in rat liver microsomes assessed as drug recovery pre-incubated at 37 degC for 5 mins measured after 30 mins in absence of NADPH by LC/MS/MS method. Format: ADME, microsome. The note with it: read-out: Drug recovery.

`C[C@H](O)[C@@H](CCc1cccc(Br)c1)n1cnc2c(N)ncnc21`: in [1] (read-out: Ki), the Ki – broadly, the equilibrium dissociation constant of an inhibitor or competing ligand from its target – came out at 0.6 nM.

For `C[C@H](O)[C@@H](CCc1cccc(C(=O)N2CCCC2)c1)n1cnc2c(N)ncnc21`, the Ki in data set [1] (read-out: Ki) is 2.2 nM.

As to `C[C@H](O)[C@@H](CCc1cccc(-c2ccccn2)c1)n1cnc2c(N)ncnc21`, the half-life in data set [2], in data set [3] and in data set [7] was over 30 min each time. The remaining at 0.5 h in data set [4] is 100%; in data set [5], 58%; in data set [6] it was 82%; in data set [9], 91%; in [10], 64%; in data set [13], 100%. Moreover, the Drug metabolism was found to be 0.06 nmol/min/mg in [8], 0.12 nmol/min/mg in data set [11] and 0.15 nmol/min/mg in data set [12]. Also, in data set [1] (read-out: Ki), the inhibitory constant (Ki) worked out at 2.3 nM.

Regarding `C[C@H](O)[C@@H](CCc1cccc(C(=O)NC2CCCC2)c1)n1cnc2c(N)ncnc21`, the Ki in data set [1] (read-out: Ki) is 1.8 nM.

As to `C[C@H](O)[C@@H](CCc1cccc(C(=O)O)c1)n1cnc2c(N)ncnc21`, the inhibitory constant (Ki) in [1] (read-out: Ki) amounted to 53 nM.

With `C[C@H](O)[C@@H](CCc1ccc(C(F)(F)F)cc1)n1ccc2c(N)ncnc21`, the Ki entry in data set [1] is given as “Not Active”.

Regarding `Cc1ccccc1SC[C@H]([C@H](C)O)n1cnc2c(N)ncnc21`, the Ki in [1] (read-out: Ki) was determined as 66 nM.

With `C[C@H](O)[C@@H](CCC1CCCCC1)n1cnc2c(N)ncnc21`, the half-life (as a rule, how long it takes for the measured level to halve) in [2] was over 30 min; in [3], 13 min; in data set [7], over 30 min. For the same compound, the remaining at 0.5 h in [4] was found to be 92%; in data set [5], 77%; in data set [6], 65%; in data set [9] it was 83%; in data set [10], 19%; in data set [13] it was 94%. Moreover, the Drug metabolism in data set [8] came to 0.11 nmol/min/mg; in data set [11], 0.44 nmol/min/mg; in data set [12], 0.07 nmol/min/mg. In addition, in data set [1] (read-out: Ki), the Ki came out at 1.9 nM.

Regarding `Cc1cccc(SC[C@H]([C@H](C)O)n2cnc3c(N)ncnc32)c1`, in [1] (read-out: Ki), the inhibition constant (Ki) came out at 49 nM.

As to `C[C@H](O)[C@@H](CCc1cccc(F)c1)n1cnc2c(N)ncnc21`, the Ki in data set [1] (read-out: Ki) is 1.6 nM.

`CCCCSC[C@H]([C@H](C)O)n1cnc2c(N)ncnc21`: the half-life in data set [2], in [3] and in [7] was over 30 min throughout. The remaining at 0.5 h came to 94% in data set [4]; 100% in data set [5]; 94% in data set [6]; 85% in data set [9]; 86% in data set [10]; 97% in data set [13]. For the same compound, the results for the Drug metabolism in data set [8], in [11] and in data set [12] were under 0.04 nmol/min/mg, 0.04 nmol/min/mg and under 0.04 nmol/min/mg, respectively. The Ki in data set [1] (read-out: Ki) stood at 54 nM.

As to `CC(C)(O)[C@@H](CCc1ccc(C(F)(F)F)cc1)n1cnc2c(N)ncnc21`, in [1] (read-out: Ki), the inhibition constant (Ki) was 69 nM.

Take `C[C@H](O)[C@@H](CCc1cccc(-c2cnccn2)c1)n1cnc2c(N)ncnc21`: the half-life in [2], in data set [3] and in [7] was over 30 min throughout. The remaining at 0.5 h in data set [4] was 94%; in [5], 57%; in data set [6], 71%; in [9] it was 94%; in data set [10] it was 90%; in [13], 85%. Moreover, the Drug metabolism is reported as 0.09 nmol/min/mg in data set [8], under 0.04 nmol/min/mg in [11] and 0.16 nmol/min/mg in [12]. For the same compound, the Ki in [1] (read-out: Ki) is 1.9 nM.

As for `C[C@H](O)[C@@H](CCc1cccc(-c2nccs2)c1)n1cnc2c(N)ncnc21`, the half-life in data set [2], in [3] and in data set [7] was over 30 min each time. Moreover, the remaining at 0.5 h in [4] amounted to 92%; in data set [5] it was 65%; in [6], 84%; in data set [9], 100%; in data set [10], 76%; in data set [13], 91%. Also, the Drug metabolism is on record as 0.05 nmol/min/mg in data set [8], 0.09 nmol/min/mg in [11] and 0.1 nmol/min/mg in [12]. In addition, in data set [1] (read-out: Ki), the inhibitory constant (Ki) came to 2.6 nM.

On to `C[C@H](O)[C@@H](CCc1cccc(C(F)(F)F)c1)n1ccc2c(N)ncnc21`, for which the Ki entry in data set [1] is recorded as “Not Active”.

As for `C[C@H](O)[C@@H](CCc1ccc(C(F)(F)F)cc1)n1ncc2c(N)ncnc21`, the inhibitory constant (Ki) entry in data set [1] is recorded as “Not Active”.

`C[C@H](O)[C@@H](CSc1ccccc1)n1cnc2c(N)ncnc21`: the inhibition constant Ki in data set [1] (read-out: Ki) was determined as 135 nM.

On to `CCc1ccc(CC[C@H]([C@H](C)O)n2cnc3c(N)ncnc32)s1`, for which the half-life in data set [2], in data set [3] and in data set [7] was over 30 min in each case. Further, the remaining at 0.5 h in data set [4] was determined as 90%; in [5], 64%; in [6], 76%; in [9] it was 95%; in data set [10] it was 58%; in data set [13], 95%. The Drug metabolism in [8] worked out at 0.07 nmol/min/mg; in data set [11] it was 0.15 nmol/min/mg; in data set [12], 0.11 nmol/min/mg. Besides, the Ki in data set [1] (read-out: Ki) was found to be 2.1 nM.

On to `C[C@H](O)[C@@H](CCc1cccc(C(N)=O)c1)n1cnc2c(N)ncnc21`, for which the inhibitory constant (Ki) in data set [1] (read-out: Ki) is 2.9 nM.

On to `CC(=O)[C@@H](CCc1ccc(C(F)(F)F)cc1)n1cnc2c(N)ncnc21`, for which the Ki result in data set [1] is recorded as “Not Active”.

For the compound `COC(=O)c1cccc(CC[C@H]([C@H](C)O)n2cnc3c(N)ncnc32)c1`, the half-life in data set [2], in data set [3] and in data set [7] was over 30 min each time. For the same compound, the remaining at 0.5 h in [4] worked out at 100%; in data set [5] it was 88%; in [6], 68%; in data set [9] it was 65%; in data set [10] it was 96%; in data set [13] it was 99%. For the same compound, the Drug metabolism in data set [8] is given as 0.1 nmol/min/mg; in [11], under 0.04 nmol/min/mg; in data set [12] it was 0.04 nmol/min/mg. For the same compound, in data set [1] (read-out: Ki), the Ki is 2.2 nM.

For `C[C@H](O)[C@@H](CCc1ccccc1C(F)(F)F)n1cnc2c(N)ncnc21`, the inhibitory constant (Ki) in [1] (read-out: Ki) was determined as 6.2 nM.

Regarding `C[C@H](O)[C@@H](CCc1ccc(C(F)(F)F)cc1)n1cnc(C(N)=O)c1`, the Ki in data set [1] (read-out: Ki) is 29 nM.

In the case of `C[C@H](O)[C@@H](CCc1cccc(C(F)(F)F)c1)n1ncc2c(N)ncnc21`, in [1], the Ki entry is “Not Active”.

`C[C@H](O)[C@@H](CCc1cccc(C(=O)N(C)C)c1)n1cnc2c(N)ncnc21`: in data set [1] (read-out: Ki), the Ki was found to be 1.8 nM.

For the compound `CNC(=O)c1cccc(CC[C@H]([C@H](C)O)n2cnc3c(N)ncnc32)c1`, the half-life in data set [2], in [3] and in data set [7] was over 30 min in each case. Besides, the remaining at 0.5 h in data set [4] is 96%; in data set [5] it was 100%; in [6] it was 90%; in [9], 92%; in data set [10], 91%; in data set [13], 100%. For the same compound, the Drug metabolism in data set [8], in data set [11] and in data set [12] was under 0.04 nmol/min/mg throughout. For the same compound, the inhibitory constant (Ki) in data set [1] (read-out: Ki) was determined as 2.7 nM.

Take `C[C@H](O)[C@@H](CCc1cccc(CO)c1)n1cnc2c(N)ncnc21`: in [1] (read-out: Ki), the inhibition constant (Ki) was 4.6 nM.

Turning to `C[C@H](O)[C@@H](CSc1cccc(C(F)(F)F)c1)n1cnc2c(N)ncnc21`, the half-life in data set [2] was 25 min; in data set [3], over 100 min; in data set [7] it was over 100 min. In addition, the remaining at 0.5 h in data set [4] worked out at 100%; in data set [5], 43%; in data set [6], 83%; in data set [9], 89%; in data set [10] it was 83%; in data set [13] it was 100%. The Drug metabolism in [8] is listed as 0.05 nmol/min/mg; in data set [11], 0.05 nmol/min/mg; in [12] it was 0.22 nmol/min/mg. For the same compound, in data set [1] (read-out: Ki), the Ki was found to be 25 nM.
